Assay results as given in US7514432B2, “Compounds and methods of treating cell proliferative diseases, retinopathies and arthritis” (Exonhit Therapeutics SA, priority 2003, dated 2009).

Tests used:
[1] = test system: Salmonella typhimurium TA 98 and TA 100 strains; assay: Screening Ames test; details: with and without S9 mix; 10 to 5000 μg per plate
Text: The objective of this study was to evaluate the potential of the test items to induce reverse mutation in Salmonella Typhimurium (TA 98 and TA 100 strains). The bacterial reverse mutation test is able to identify substances that cause point mutations, by substitution, addition or deletion of one or a few DNA base-pairs. Mutagenic substances can induce reversion in histidine deficient strains which are then able to grow and form colonies in a histidine-limited medium, while non-reverted cannot. This test is performed in the absence and presence of a rat liver metabolising system (S9 mix). Three known mutagens are used to check sensitivity of test system: sodium azide, 2-nitrofluorene and 2-anthramine.
The dose levels per plate were of 10 to 5000 μg. A preliminary toxicity test was performed followed by the mutagenecity test per se.

MCF7 = assay: Cell viability assay (MTT), MCF7; assay type: cell-based; details: Homo sapiens, 10% FBS, 1% DMSO
Protocol: Table 12: 6-day cell viability assay (MTT) in the presence of 10% Fetal Bovine Serum and 1% DMSO, in HMEC1, HCT116, MDA-MB-231, MCF7 and NIH3T3 cell lines. 3 10^3 to 15 10^3 cells were seeded in 48-well plates in growth medium containing 10% FBS, with or without various concentrations of test compounds. Cell cultures were fed every 3 days with the appropriate media. Cell viability was determined on day 6. Data were analyzed and IC50s were calculated from dose-response curves using GraphPad Prism. Results summarized in the tables are mean±SEM of 1 to 8 independent experiments.
(§1) Table 14: 3-day cell viability assay (MTT) in the presence of 10% Fetal Bovine Serum and 1% DMSO, in DLD1, HCT116, MDA-MB-231, MCF7 and HeLa cells. 7.5 10^3 to 1.5 10^4 cells were seeded in 48-well plates in growth medium containing 10% FBS, with or without various concentrations of test compounds. Data were analyzed and IC50s were calculated from dose-response curves using GraphPad Prism. Results summarized in the tables are mean±SEM of 1 to 7 independent experiments.
(§2) In order to determine a compound's effect on cell viability, microculture tetrazolium assays (MTT) were performed as described by Carmichael et al. (1996) with modifications. Four human tumoral cell lines, namely HCT116 colon adenocarcinoma, H460 lung carcinoma, MCF-7 and MDA-MB-231 breast carcinoma cell lines, DLD1 colorectal adenocarcinoma, HeLa adenocarcinoma, HepG2 hepatocellular carcinoma. 3 immortalized but non tumorigenic cell lines, namely NIH3T3 mouse fibroblasts (American Type Culture Collection) and primary hepatocytes (Biopredic international), cultured according to their recommendations together with Human Microvasculature Endothelial Cell line HMEC1 (National Center for Infectious Diseases). Briefly, cells were seeded in 48-well plates 24 hours before drug addition. Cells were treated with 0 to 200 μM (11 concentrations) of compound solubilized in DMSO, adjusting the final concentration of DMSO to 1% in the well. 16 hours, and three or six days after treatment, 0.5 mg/ml MTT (Sigma) was added to the medium and cells were incubated for 1-5 hours at 37° C. before solubilization of formazan crystals in 100% DMSO. Absorbance was measured using a spectrophotometer at a wavelength of 550 nm. Data was analyzed using the GraphPad Prism software (GraphPad Software, Inc.), and IC50 (dose leading to 50% cell death) was calculated from the dose-response curves.

HMEC1 = assay: Cell viability assay (MTT), HMEC1; assay type: cell-based, Human; details: MTT, 10% FBS, 6-day treatment, 1% DMSO
In short: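 HMEC1 cells seeded 24 h before dosing, then exposed to 0–200 μM compound (11 concentrations) in medium with 10% FBS and 1% DMSO final, refed every 3 days. Viability read on day 6 by MTT (0.5 mg/ml, 1–5 h at 37 °C), absorbance 550 nm; IC50 from dose-response curves, mean±SEM of 1–8 experiments.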

HMEC-1 cells = assay: Tubule formation (tubulogenesis) assay on Matrigel; assay type: cell-based, Human; details: HMEC1 on Matrigel; for IC50: Homo sapiens, HMEC-1, 6 to 8 hours, read-out: IC50, tubulogenesis (number of junctions)
Protocol: FIG. 5: Tubulogenesis assay (number of junctions). 2 10^4 Cells were plated on Matrigel-coated wells as described in the material and methods. Pictures of each well were taken after a 7-hours incubation. The “number of junctions” parameter was quantitated using the AngioSys software and data were analyzed using GraphPad Prism for IT50 calculation. Values represent the mean±SEM of 2 to 30 independent experiments.
The endothelial cell tube formation assay, or tubulogenesis assay, is an in vitro assay that is widely accepted to accurately reflect number of terminal stages of the angiogenic process such as attachment, migration and differentiation into tubular structures. In this model, endothelial cells are cultured on a monolayer of reconstituted basement membrane components (Matrigel) and form, in a few hours, capillary-lilke structure. Therefore, this system is a useful and powerful tool for rapidly screening anti-angiogenic agents by monitoring inhibition of endothelial cells morphogenesis on extracellular matrix.
HMEC-1 cell line is cultured in MCDB-131 medium (Sigma) supplemented with 15% FBS, 10 ng/ml recombinant human epidermal growth factor (Invitrogen) and 1 μg/ml hydrocortisone. Cells are cultured to 70-80% confluence. A 96-well plate was coated with Matrigel® Basement Membrane Matrix (Becton Dickinson). 2 10^4 HMEC-1 cells were seeded into each well. The test or control compounds were diluted in DMSO and added to the coated plate. The plate was subsequently incubated for 6 to 8 hours at 37° C., 5% CO2 atmosphere to allow tubule formation. The cells were then incubated with 1.25 μg/ml Calcein AM for 15 minutes at 37° C., 5% CO2. Pictures of each well were taken using a fluorescent microscope and a digital camera (Nikon Coolpix 990). Images were analysed using AngioSys software (TCS Cellworks) that allows quantification of the total tubule length and of the number of junctions, two parameters representative of tubule formation/disruption. Data was analyzed using the GraphPad Prism software, and IT50s (dose leading to 50% inhibition of tubulogenesis) was calculated.

HeLa = assay: Cell viability assay (MTT), HeLa; assay type: cell-based; details: Homo sapiens, 72 h, 10% FBS, 3-day treatment, 1% DMSO
Protocol: as §1, §2

Compound	mutagenic activity [1]	IC50 (MCF7; MCF7, 72 h, 3-day treatment)	IC50 (MCF7; MCF7, 144 h, 6-day treatment)	IC50 (HMEC1; Homo sapiens, HMEC-1, 144 h)	fold more active than reference compound CAI in tubulogenesis (HMEC-1 cells)	IC50 (HMEC-1 cells)	IC50 (HeLa)	IC50 (HMEC1; trihydrochloride)
Cl.Cl.O=c1cc(CN2CCOCC2)occ1OCCCCCSc1ccnc2cc(C(F)(F)F)ccc12 [EHT 1864, 5-(5-(7-(Trifluoromethyl)quinolin-4-ylthio)pentyloxy)-2-(morpholinomethyl)-4H-pyran-4-one dihydrochloride]	did not show any mutagenic activity	15.2 µM	5.6 µM	27.4 µM	4 fold	34.9 ± 3.5 µM	23.3 µM	–
Cl.Cl.Cl.O=c1cc(CN2CCNCC2)occ1OCCCCCSc1ccnc2cc(C(F)(F)F)ccc12 [EHT 8560, 5-(5-(7-(Trifluoromethyl)quinolin-4-ylthio)pentyloxy)-2-((piperazin-1-yl)methyl)-4H-pyran-4-one trihydrochloride]	did not show any mutagenic activity	9.2 µM	–	< 10 µM	–	17 ± 3.6 µM	4.4 µM	6.1 µM
CN1CCN(Cc2cc(=O)c(OCCCCCSc3ccnc4cc(C(F)(F)F)ccc34)co2)CC1.Cl.Cl.Cl [EHT 9241, 5-(5-(7-(Trifluoromethyl)quinolin-4-ylthio)pentyloxy)-2-((4-methylpiperazin-1-yl)methyl)-4H-pyran-4-one trihydrochloride]	did not show any mutagenic activity	7.5 µM	1.2 µM	< 10 µM	–	26 ± 8.7 µM	5.7 µM	8.2 µM
